Test results as given in ChEMBL document CHEMBL1123410, “Selective thromboxane synthetase inhibitors. 2. 3-(1H-imidazol-1-ylmethyl)-2-methyl-1H-indole-1-propanoic acid and analogues” (J Med Chem, 1986).

Experiments:
Thromboxane-A synthase = target: T1, Thromboxane-A synthase (Homo sapiens, UniProt P24557); assay: Inhibition of TXA2 synthetase from human platelets
T1 sequence (P24557 whole entry): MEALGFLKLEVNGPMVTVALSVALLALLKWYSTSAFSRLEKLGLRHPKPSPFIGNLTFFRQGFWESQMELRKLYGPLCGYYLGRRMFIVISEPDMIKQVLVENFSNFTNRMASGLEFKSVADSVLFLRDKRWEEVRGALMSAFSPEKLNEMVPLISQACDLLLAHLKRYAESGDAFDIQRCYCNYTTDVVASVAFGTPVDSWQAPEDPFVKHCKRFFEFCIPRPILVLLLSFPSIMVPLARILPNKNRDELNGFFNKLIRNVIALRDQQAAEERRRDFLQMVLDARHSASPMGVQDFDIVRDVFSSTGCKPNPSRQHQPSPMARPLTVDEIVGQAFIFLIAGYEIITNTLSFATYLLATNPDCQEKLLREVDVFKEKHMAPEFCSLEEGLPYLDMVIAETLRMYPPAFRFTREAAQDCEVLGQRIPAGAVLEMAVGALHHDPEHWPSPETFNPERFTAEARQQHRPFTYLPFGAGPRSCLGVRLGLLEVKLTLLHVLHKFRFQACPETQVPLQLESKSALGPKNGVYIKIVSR

[1] = target: T2, Cytochrome P450 11B1, mitochondrial (Rattus norvegicus, UniProt P15393); assay: Inhibition of 11 beta-hydroxylase from rat adrenal gland; assay type: tissue-based
T2 sequence (P15393 whole entry): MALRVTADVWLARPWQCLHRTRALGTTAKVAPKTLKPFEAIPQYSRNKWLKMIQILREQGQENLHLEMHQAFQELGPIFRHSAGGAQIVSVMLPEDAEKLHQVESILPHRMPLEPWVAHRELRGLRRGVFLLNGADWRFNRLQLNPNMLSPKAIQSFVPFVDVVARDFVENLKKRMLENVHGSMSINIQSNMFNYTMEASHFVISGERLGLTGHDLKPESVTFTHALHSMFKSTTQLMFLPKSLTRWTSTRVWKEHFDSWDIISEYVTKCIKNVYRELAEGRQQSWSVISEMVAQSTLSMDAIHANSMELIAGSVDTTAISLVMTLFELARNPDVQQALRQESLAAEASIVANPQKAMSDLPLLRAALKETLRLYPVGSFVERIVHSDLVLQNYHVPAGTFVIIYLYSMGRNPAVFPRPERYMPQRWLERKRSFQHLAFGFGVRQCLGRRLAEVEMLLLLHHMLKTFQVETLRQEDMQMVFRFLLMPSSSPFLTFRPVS

[2] = target: T3, Prostaglandin G/H synthase (cyclooxygenase) (Ovis aries, UniProt P05979+P79208); assay: Inhibition of Prostaglandin G/H synthase from ram seminal vesicle microsomes
T3 sequence (P05979 whole entry): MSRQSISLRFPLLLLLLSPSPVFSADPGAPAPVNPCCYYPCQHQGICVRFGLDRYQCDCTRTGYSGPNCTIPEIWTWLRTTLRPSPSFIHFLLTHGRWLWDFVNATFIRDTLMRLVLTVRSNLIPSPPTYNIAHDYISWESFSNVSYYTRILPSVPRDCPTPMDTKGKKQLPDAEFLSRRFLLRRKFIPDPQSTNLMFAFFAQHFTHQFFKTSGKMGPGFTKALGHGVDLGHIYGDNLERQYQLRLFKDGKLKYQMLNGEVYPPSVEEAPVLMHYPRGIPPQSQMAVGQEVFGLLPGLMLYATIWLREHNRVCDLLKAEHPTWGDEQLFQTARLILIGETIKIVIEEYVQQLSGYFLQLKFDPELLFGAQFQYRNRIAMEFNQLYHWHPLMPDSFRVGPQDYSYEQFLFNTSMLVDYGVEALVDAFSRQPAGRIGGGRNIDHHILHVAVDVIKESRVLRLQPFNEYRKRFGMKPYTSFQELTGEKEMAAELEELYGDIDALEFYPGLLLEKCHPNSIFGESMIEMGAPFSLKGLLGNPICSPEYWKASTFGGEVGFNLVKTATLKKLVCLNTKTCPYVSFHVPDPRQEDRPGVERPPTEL
T3 sequence (P79208 whole entry): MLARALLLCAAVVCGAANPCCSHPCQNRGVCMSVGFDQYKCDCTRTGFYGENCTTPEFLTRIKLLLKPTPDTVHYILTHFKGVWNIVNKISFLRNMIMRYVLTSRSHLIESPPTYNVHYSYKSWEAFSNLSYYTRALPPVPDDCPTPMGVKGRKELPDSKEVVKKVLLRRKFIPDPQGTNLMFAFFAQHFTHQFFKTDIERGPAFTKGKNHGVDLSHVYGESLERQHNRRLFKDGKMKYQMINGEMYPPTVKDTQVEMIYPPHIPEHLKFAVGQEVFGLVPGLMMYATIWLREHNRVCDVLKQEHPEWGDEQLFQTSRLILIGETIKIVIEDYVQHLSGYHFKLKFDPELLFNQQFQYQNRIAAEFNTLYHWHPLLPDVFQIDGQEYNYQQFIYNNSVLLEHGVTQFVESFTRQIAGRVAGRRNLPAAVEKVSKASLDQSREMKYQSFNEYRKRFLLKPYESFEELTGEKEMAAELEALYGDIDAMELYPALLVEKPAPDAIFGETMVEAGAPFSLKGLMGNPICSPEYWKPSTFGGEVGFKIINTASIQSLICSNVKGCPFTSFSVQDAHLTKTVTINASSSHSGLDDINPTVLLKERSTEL

Compound	IC50 (Thromboxane-A synthase) [nM]	IC50 [1] [nM]	IC50 [2] [M]
CC(C)c1c(Cn2ccnc2)c2ccccc2n1CCC(=O)O	8.2	> 10000	–
O=C(O)CCn1c(C2CC2)c(Cn2ccnc2)c2ccccc21	4.9	–	–
FC(F)(F)c1ccc2c(Cn3ccnc3)c[nH]c2c1	4600	–	–
Cc1c(Cn2ccnc2)c2ccccc2n1/C=C/C(=O)O	70	–	–
CCn1cc(Cn2ccnc2)c2ccccc21	8.4	10000	> 0.0001
c1ccc2c(Cn3ccnc3)c[nH]c2c1	25	10000	> 0.001
O=C(O)CCn1cc(Cn2ccnc2)c2ccc(C(F)(F)F)cc21	10	–	–
O=C(O)CCn1cc(Cn2ccnc2)c2cc(Br)ccc21	12	–	–
Clc1ccc2[nH]cc(Cn3ccnc3)c2c1	3000	–	–
CN(C)c1ccc2c(c1)c(Cn1ccnc1)cn2CCC(=O)O	82	–	–
O=C(O)Cn1cc(Cn2ccnc2)c2ccccc21	30	–	> 0.0001
O=C(O)CCn1cc(Cn2ccnc2)c2ccccc21	19	> 10000	> 0.0001
CC(C)c1[nH]c2ccccc2c1Cn1ccnc1	–	–	> 0.0001
Cc1ccc2c(c1)c(Cn1ccnc1)cn2CCC(=O)O	42	–	–
O=C(O)CCn1cc(Cn2ccnc2)c2cc(Cl)ccc21	21	–	–
COc1ccc2c(c1)c(Cn1ccnc1)cn2CCC(=O)O	43	–	–
Cc1c(Cn2ccnc2)c2ccccc2n1CCC(=O)O [DAZMEGREL]	28	> 100000	> 0.0001
O=C(O)c1ccc(OCCn2ccnc2)cc1 [DAZOXIBEN]	–	> 100000	–
